Test results reported in patent US10633407B2, “14-membered ketolides and methods of their preparation and use” (President and Fellows of Harvard College, priority 2014, dated 2020).
In brackets after ≈: the same amount, converted by molar mass. Like-named read-outs stand apart in the source and are kept apart here.

Assays:
Test in all cases: CLSI broth dilution MIC determination
Type in all cases: cell-based
[1] = system: E. coli ATCC 25922
Description: (§1) MIC data was collected for the novel macrolides that this platform has produced against over 21 unique strains of B. subtilis, E. coli, S. aureus, S. pneumoniae, and H. influenzae, including several multidrug-resistant strains, with a special focus on macrolide resistant mechanisms (vide supra). Azithromycin (Azithro) and Solithromycin (Solithro) were included as a control macrolides in many cases. CLSI standard procedures for broth dilution MIC determination were used. […] These genotypes can be constitutive or inducible.

[2] = system: E. coli CTX-M-14; settings: Gram-negative
Description: as §1

[3] = system: E. coli NDM-1; settings: Gram-negative
Description: as §1

[4] = system: E. coli TEM-1; settings: E. coli TEM-1; Gram-negative
Description: as §1

[5] = system: H. influenzae ATCC49247; settings: Gram-negative
Description: as §1

[6] = system: K. pneumoniae TEM-10; settings: Gram-negative
Description: as §1

[7] = system: S. aureus ATCC 29213
Description: as §1

[8] = system: S. aureus MRSA: USA100; settings: S. aureus MRSA: USA100; Gram-positive
Description: as §1

[9] = system: S. aureus MRSA: USA300
Description: as §1

[10] = system: S. aureus USA600, GISA; settings: S. aureus USA600, GISA; Gram-positive
Description: as §1

[11] = system: S. aureus erm A genotype; settings: S. aureus erm A genotype; Gram-positive
Description: as §1

[12] = system: S. pneumoniae ATCC 49619; settings: S. pneumoniae ATCC 49619; Gram-positive
Description: as §1

[13] = system: S. pneumoniae mef A genotype (second strain so labelled); settings: Gram-positive
Description: as §1

[14] = system: S. pyogenes ATCC 19615; settings: S. pyogenes ATCC 19615; Gram-positive
[15] = system: S. pyogenes Macrolide-resistant; settings: S. pyogenes Macrolide-resistant; Gram-positive
[16] = system: E. faecalis ATCC 29212; settings: E. faecalis ATCC 29212; Gram-positive
[17] = system: E. faecalis Vancomycin-resistant; settings: E. faecalis Vancomycin-resistant; Gram-positive
[18] = system: A. baumannii ATCC 19606
[19] = system: A. baumannii imipenem-resistant; settings: Gram-negative
[20] = system: A. baumannii chromosomal class C; settings: Gram-negative
[21] = system: A. baumannii IMP-4; settings: Gram-negative
[22] = system: K. pneumoniae ATCC 10031
[23] = system: K. pneumoniae KPC-2; settings: Gram-negative
[24] = system: K. pneumoniae SHV-12; settings: Gram-negative
[25] = system: P. aeruginosa ATCC 27853
[26] = system: P. aeruginosa HPA101-1477; settings: Gram-negative
[27] = system: H. influenzae Erythro >4, Azithro 1; settings: H. influenzae Erythro >4, Azithro 1; Gram-negative
Description: as §1, with “Azithromycin (Azithro) and Solithromycin (Solithro) were included as a control macrolides in many cases.” left out

[28] = system: E. coli MP-532 clinical-cErmB; settings: Escherichia coli
Description: as §1

[29] = system: E. coli MP-541 clinical; settings: Escherichia coli, MP541CLINICAL, read-out: MIC
Description: as §1

[30] = system: E. coli MP-9 ATCC25922:tolC; settings: Escherichia coli, ATCC25922
Description: as §1

[31] = system: S. aureus (MRSA) MP-513 ST-228 cErm (Clinical-cErm); settings: Staphylococcus aureus, read-out: MIC
Description: as §1

[32] = system: S. aureus MP-17 ATCCBAA-977 (BAA 977 iErm); settings: Staphylococcus aureus; S. aureus MP-17, ATCCBAA-977, iErm; read-out: MIC
Description: as §1

[33] = system: P. aeruginosa MP-7 PAO1; settings: Pseudomonas aeruginosa, read-out: MIC
[34] = system: P. aeruginosa MP-8 PAO1:mex (mex-oprM-deletion); settings: Pseudomonas aeruginosa, PAO1
[35] = system: K. pneumoniae MP-548 clinical; settings: Klebsiella pneumoniae, MP548CLINICAL, read-out: MIC
[36] = system: K. pneumoniae MP-546 Clinical-MDR; settings: Klebsiella pneumoniae, read-out: MIC
[37] = system: A. baumannii MP-577 Clinical-AZT low; settings: Acinetobacter baumannii, read-out: MIC
[38] = system: A. baumannii MP-576 Clinical-MDR; settings: Acinetobacter baumannii, read-out: MIC

## CC[C@H]1OC(=O)[C@H](C)C(=O)[C@H](C)[C@@H](O[C@@H]2OC(C)CC(N(C)C)C2O)[C@](C)(OC)C[C@@H](C)C(=O)[C@H](C)[C@H]2N(C/C=C/Cn3cnc(-c4ccccn4)c3)C(=O)O[C@]12C (some centres unmarked) [FSM-100421]
[1]; E. coli ATCC 25922, Gram-negative
  MIC: 32 µg/mL (≈ 39.5 µM)
[2]
  MIC: > 32 µg/mL
[3]
  MIC: > 32 µg/mL
[4]
  MIC: 32 µg/mL (≈ 39.5 µM)
[5]
  MIC: 2 µg/mL (≈ 2.47 µM)
[6]
  MIC: 32 µg/mL (≈ 39.5 µM)
[7]; S. aureus ATCC 29213, Gram-positive
  MIC: 0.0625 µg/mL (≈ 0.0772 µM)
[8]
  MIC: > 32 µg/mL
[9]; S. aureus MRSA: USA300, Gram-positive
  MIC: 2 µg/mL (≈ 2.47 µM)
[10]
  MIC: > 32 µg/mL
[11]
  MIC: > 32 µg/mL
[12]
  MIC: < 0.0312 µg/mL
[13]
  MIC: 0.0625 µg/mL (≈ 0.0772 µM)
[14]
  MIC: < 0.0312 µg/mL
[15]
  MIC: < 0.0312 µg/mL
[16]
  MIC: < 0.0312 µg/mL
[17]
  MIC: 32 µg/mL (≈ 39.5 µM)
[18]; A. baumannii ATCC 19606, Gram-negative
  MIC: 16 µg/mL (≈ 19.8 µM)
[19]
  MIC: 16 µg/mL (≈ 19.8 µM)
[20]
  MIC: 32 µg/mL (≈ 39.5 µM)
[21]
  MIC: > 32 µg/mL
[22]; K. pneumoniae ATCC 10031, Gram-negative
  MIC: 4 µg/mL (≈ 4.94 µM)
[23]
  MIC: > 32 µg/mL
[24]
  MIC: > 32 µg/mL
[25]; P. aeruginosa ATCC 27853, Gram-negative
  MIC: > 32 µg/mL
[26]
  MIC: > 32 µg/mL
[27]
  MIC: 1 µg/mL (≈ 1.23 µM)

## CC[C@H]1OC(=O)[C@H](C)C(=O)[C@H](C)[C@@H](O[C@@H]2OC(C)CC(N(C)C)C2O)[C@](C)(OC)C[C@@H](C)C(=O)[C@H](C)[C@H]2N(CC#CCn3cc(-c4cccnn4)nn3)C(=O)O[C@]12C (some centres unmarked) [FSM-130216]
[1]; Escherichia coli, ATCC25922, E. coli ATCC 25922 (MP-4), read-out: MIC
  MIC: 32 µg/mL (≈ 39.5 µM)
[28]
  MIC: > 64 µg/mL
[29]
  MIC: 64 µg/mL (≈ 79 µM)
[30]
  MIC: 4 µg/mL (≈ 4.94 µM)
[31]
  MIC: > 64 µg/mL
[7]; Staphylococcus aureus, ATCC29213, S. aureus ATCC 29213 (MP-12), read-out: MIC
  MIC: 0.25 µg/mL (≈ 0.309 µM)
[32]
  MIC: 0.25 µg/mL (≈ 0.309 µM)
[9]; Staphylococcus aureus, S. aureus MRSA: USA300 (MP-549, msr(a)), read-out: MIC
  MIC: 0.5 µg/mL (≈ 0.617 µM)
[18]; Acinetobacter baumannii, ATCC19606, A. baumannii ATCC 19606 (MP-15), read-out: MIC
  MIC: 16 µg/mL (≈ 19.8 µM)
[22]; Klebsiella pneumoniae, ATCC10031, K. pneumoniae ATCC 10031 (MP-14), read-out: MIC
  MIC: 4 µg/mL (≈ 4.94 µM)
[25]; Pseudomonas aeruginosa, ATCC27853, P. aeruginosa ATCC 27853 (MP-3), read-out: MIC
  MIC: > 64 µg/mL
[33]
  MIC: > 64 µg/mL
[34]
  MIC: 16 µg/mL (≈ 19.8 µM)
[35]
  MIC: > 64 µg/mL
[36]
  MIC: > 64 µg/mL
[37]
  MIC: 64 µg/mL (≈ 79 µM)
[38]
  MIC: > 64 µg/mL
